Reference: article PMC2762440 (Journal of medicinal chemistry, 2009)

What was measured:
ICR mice = assay: Forced-swim test in ICR mice; assay type: in vivo, mouse; details: for immobility in the forced-swim test vs vehicle: 3 mg/kg, P < 0.05; for duration of immobility in the forced-swim test: doses of 0.3 and 3 mg/kg
Human PDE4D3 = Human PDE4D3 (Homo sapiens, UniProt Q08499); assay: Inhibition of cAMP hydrolysis by recombinant PDE4D3; assay type: biochemical; details: read-out: Human PDE4D3 Ki, recombinant enzyme
Sequence of Human PDE4D3 (Q08499 1-673 isoform Q08499-2): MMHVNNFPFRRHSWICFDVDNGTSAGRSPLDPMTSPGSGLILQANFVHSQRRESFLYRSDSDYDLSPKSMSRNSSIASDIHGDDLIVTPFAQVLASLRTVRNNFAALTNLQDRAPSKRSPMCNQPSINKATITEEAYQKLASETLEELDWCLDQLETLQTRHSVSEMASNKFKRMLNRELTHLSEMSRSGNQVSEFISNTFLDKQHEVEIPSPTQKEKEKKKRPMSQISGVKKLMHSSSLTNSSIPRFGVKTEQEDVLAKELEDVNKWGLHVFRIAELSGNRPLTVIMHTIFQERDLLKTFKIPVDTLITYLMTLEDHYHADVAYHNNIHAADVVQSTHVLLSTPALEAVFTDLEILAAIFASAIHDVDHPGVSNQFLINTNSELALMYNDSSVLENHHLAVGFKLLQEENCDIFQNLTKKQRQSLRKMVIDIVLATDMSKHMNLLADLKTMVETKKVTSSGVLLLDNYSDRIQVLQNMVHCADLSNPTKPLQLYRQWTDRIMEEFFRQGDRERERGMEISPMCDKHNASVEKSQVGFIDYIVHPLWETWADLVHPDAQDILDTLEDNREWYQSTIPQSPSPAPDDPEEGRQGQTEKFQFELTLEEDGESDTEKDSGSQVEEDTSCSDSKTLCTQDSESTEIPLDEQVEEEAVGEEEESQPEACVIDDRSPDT

Balb/c mice = assay: Forced-swim test in Balb/c mice; assay type: in vivo, mouse; details: for duration of immobility in the forced-swim test: acute, i.p. 30 min prior; for immobility in the forced-swim test vs vehicle: subchronic, i.p. 23, 5 and 1 hr prior
[1] = Mouse liver microsome stability assay; assay type: in vitro ADME; details: mouse liver microsomes + NADPH, 40 µM compound, 37 °C
[2] = Human liver microsome stability assay; assay type: in vitro ADME; details: human liver microsomes + NADPH, 40 µM compound, 37 °C
[3] = ICR mice, acute, i.p. 30 min prior

In the case of `COc1ccc(C2=NNC(=O)C3CC=CCC23)cc1OC` (stereo not drawn) [Compound 19, 4-(3,4-Dimethoxy-phenyl)-4a,5,8,8a-tetrahydro-2H-phthalazin-1-one, reference compound], the “immobility in the forced-swim test vs vehicle” value (from here on “immobility … vs vehicle”) (ICR mice; [3]) is reported as “significantly decreased immobility”, the “duration of immobility in the forced-swim test” value (from here on “duration of immobility”) (ICR mice; [3]) is reported as “decreased duration of immobility in a dose-dependent manner” and the Ki (Human PDE4D3) is reported as 6.3 nM.

For `COc1ccc(F)cc1CCC1CCC(CCN)O1` (stereo not drawn) [Compound 14, 2-{5-[3-(5-Fluoro-2-methoxy-phenyl)-ethyl]-tetrahydro-furan-2-yl}-ethylamine], the “immobility in the forced-swim test” value (ICR mice; ICR mice, acute, i.p. 30 min prior, 10 and 30 mg/kg) was “tended to decrease immobility, but this effect was not statistically significant”, the “duration of immobility” value (Balb/c mice; 10 mg/kg) was “did not markedly alter the duration of immobility” and the “immobility … vs vehicle” value (Balb/c mice; 10 mg/kg) was “did not change immobility”.

In the case of `CNCCC1CCC(CCc2cc(F)ccc2OC)O1` (stereo not drawn) [Compound 24], the “MLM t1/2” value [1] is reported as 58.5 min.

With `COc1ccc(F)cc1CCC1CCC(CCNCCCCCN2N=C(c3ccc(OC)c(OC)c3)[C@H]3CC=CC[C@H]3C2=O)O1` (stereo partly drawn) [Compound 21] the “immobility … vs vehicle” value (ICR mice; [3]) was “significantly decreased immobility”, the “duration of immobility” value (ICR mice; [3]) was “decreased duration of immobility in a dose-dependent manner” and the “immobility … vs vehicle” value (Balb/c mice; 1 mg/kg) was “did not change immobility”. The “HLM t1/2” value [2] was “not detectably metabolized”.

For `COc1ccc(F)cc1CCCC1CCC(CCN)O1` (stereo not drawn) [Compound 15, 2-{5-[3-(5-Fluoro-2-methoxy-phenyl)-propyl]-tetrahydro-furan-2-yl}-ethylamine], the “duration of immobility” value (Balb/c mice; 10 mg/kg) was “did not markedly alter the duration of immobility” and the “immobility … vs vehicle” value (Balb/c mice; 1 mg/kg) was “did not change immobility”.

In the case of `COc1ccc(F)c(CCCC2CCC(CCNCCCCCN3N=C(c4ccc(OC)c(OC)c4)[C@H]4CC=CC[C@H]4C3=O)O2)c1` (stereo partly drawn) [Compound 22], the “HLM t1/2” value [2] is reported as “No detectable metabolic instability”.

For `COc1ccc(C2CNC(=O)C2)cc1OC1CCCC1` (stereo not drawn) [Rolipram, reference compound], the “effect in the forced-swim test” value (ICR mice; acute treatment 0.5 mg/kg, data not shown) was “did not alter FST behavior”.
